Molecular target: T1, PASK (Invitrogen) (Homo sapiens, UniProt Q96RG2)
T1 construct: IC50 Kinase Domain; purchased Invitrogen
Assay: PAS Kinase FRET Assay
Assay type: biochemical
Settings: PAS kinase TR-FRET assay (665 nm/615 nm); read-out: IC50 Kinase Domain
From the text: Biochemical Assay for hPASK Activity
The aim of the FRET assay is to determine the inhibition potential of test compounds on targeted kinase. This assay platform provides a homogenous screening method for measuring kinase activity by quantitating the amount of phospho-substrate in solution following a kinase reaction.
In the presence of kinase and ATP, the Ulight-peptide is phosphorylated and captured by an anti-phospho-substrate antibody, which brings the Eu chelate donor and Ulight acceptor dyes into close proximity. Upon excitation at 340 nm, the Eu chelate transfers its energy to the Ulight dye, resulting in a fluorescent light emission at 665 nm.
Titration of kinase at 1 mM ATP was achieved via the following protocol. After making serial three-fold dilutions of PASK (Invitrogen) in reaction buffer across the plate; 5 μl of kinase dilution and 5 μl substrate/ATP mix were added to the wells of the white Optiplate-384 (PerkinElmer). The contents of the plate were and incubated at RT for 1 h. The reaction was stopped by adding 5 μl of stop solution to each test well followed by mixing and incubation at RT for 10 minutes. 5 μl of detection mix (detection antibody diluted in detection buffer) was added; the contents of the plate were mixed and then incubated in the dark for 1 hour at RT. The signal was recorded at TR-FRET mode (665 nm/615 nm). The results were graphed to calculate the EC50.
Titration of ATP at the EC50 concentration of kinase to determine ATP Km,app. was performed using the following method. After making serial dilutions of ATP (Invitrogen), 5 μl of ATP dilution and 5 μl substrate/kinase mix were added to the wells of the white Optiplate-384 (PerkinElmer). The contents of the plate were and incubated at RT for 1 h. The reaction was stopped by adding 5 μl of stop solution to each test well followed by mixing and incubation at RT for 10 minutes. 5 μl of detection mix (detection antibody diluted in detection buffer) was added; the contents of the plate were mixed and then incubated in the dark for 1 hour at RT. The signal was recorded at TR-FRET mode (665 nm/615 nm). The results were graphed to calculate the EC50 as the ATP Km,app.
Compound screening was done via the following method. 10 mM stock solution of test compound in DMSO was prepared by dissolving test compound in DMSO at RT for 1 hour, and then sonicating at 100% output for 8 minutes. If compound is not soluble under this condition, it was diluted to 3 mM. Kinase reaction buffer was prepared containing 10 mM MgCl2, 50 mM HEPES, 1 mM EGTA, 0.01% TWEEN-20, 2 mM DTT. Serial dilutions of the test compounds were prepared at 4× final assay concentrations using Freedom EVO200® dispensing system as follows: 12×10^−5 M, 4×10^−5 M, 1.33×10^−5 M, 4.44×10^−6 M, 1.48×10^−6 M, 4.92×10^−7 M, 1.65×10^−7 M, […], 1.82×10^−8M, 6.09×10^−9, 2.03×10^−9 M. Test compounds (2.5 μl at 4× the final assay concentration) was added to wells using Freedom EVO200® dispensing system. As a positive control, 2.5 μl of positive compound was added to assay wells, and 2.5 μl of DMSO to assay wells as vehicle control. Kinase solution was prepared in reaction buffer at 2× final assay concentration. Kinase solution (5 μl) was added to each well of the assay plate. The substrate and ATP solution was prepared in kinase reaction buffer at 4× final assay concentration. The kinase reaction was started by adding 2.5 μl of substrate+ATP mix solution to each well of the assay plate. The plate is mixed on a plate shaker; then covered and allowed to react for 2 hours in the dark at 25° C. without shaking. The reaction was stopped by adding 5 μl of stop solution to each test well followed by mixing and incubation at RT for 10 minutes in the dark. 5 μl of detection mix (detection antibody diluted in detection buffer) was added; the contents of the plate were mixed and then incubated in the dark for 1 hour at RT. The signal was recorded at TR-FRET mode (665 nm/615 nm).

T1 sequence (Q96RG2 999-1251 limits assumed): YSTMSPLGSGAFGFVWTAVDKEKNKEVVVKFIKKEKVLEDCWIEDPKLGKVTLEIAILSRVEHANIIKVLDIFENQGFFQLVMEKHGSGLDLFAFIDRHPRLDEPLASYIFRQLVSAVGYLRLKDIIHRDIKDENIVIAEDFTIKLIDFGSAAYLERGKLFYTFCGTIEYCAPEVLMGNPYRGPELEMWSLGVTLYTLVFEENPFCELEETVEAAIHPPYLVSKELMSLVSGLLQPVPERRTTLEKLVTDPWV

IC50, ≤ 10 µM:
CCc1cnc(-c2cnn3c(=O)cc(-c4ccc5[nH]nnc5c4)[nH]c23)o1 [Example 6, 5-(1H-1,2,3-benzotriazol-5-yl)-3-(5-ethyl-1,3-oxazol-2-yl)-4H,7H-pyrazolo[1,5-a]pyrimidin-7-one]
Cc1noc(-c2cnn3c(=O)cc(-c4ccc(Cl)cc4)[nH]c23)n1 [Example 7, 5-(4-chlorophenyl)-3-(3-methyl-1,2,4-oxadiazol-5-yl)-4H,7H-pyrazolo[1,5-a]pyrimidin-7-one]
Cc1noc(-c2c(C)nn3c(=O)cc(-c4ccc(Cl)cc4)[nH]c23)n1 [Example 8, 5-(4-chlorophenyl)-2-methyl-3-(3-methyl-1,2,4-oxadiazol-5-yl)-4H,7H-pyrazolo[1,5-a]pyrimidin-7-one]
Cc1noc(-c2c(O)nn3c(=O)cc(-c4ccc(Cl)cc4)[nH]c23)n1 [Example 9, 5-(4-chlorophenyl)-2-hydroxy-3-(3-methyl-1,2,4-oxadiazol-5-yl)-4H,7H-pyrazolo[1,5-a]pyrimidin-7-one]
COc1nn2c(=O)cc(-c3ccc(Cl)cc3)[nH]c2c1-c1nc(C)no1 [Example 10, 5-(4-chlorophenyl)-2-methoxy-3-(3-methyl-1,2,4-oxadiazol-5-yl)-4H,7H-pyrazolo[1,5-a]pyrimidin-7-one]
Cc1coc(-c2cnn3c(=O)cc(-c4ccc5[nH]nnc5c4)[nH]c23)n1 [Example 11, 5-(1H-1,2,3-benzotriazol-5-yl)-3-(4-methyl-1,3-oxazol-2-yl)-4H,7H-pyrazolo[1,5-a]pyrimidin-7-one]
CCc1cnc(-c2cnn3c(=O)cc(-c4ccc5c(c4)OCO5)[nH]c23)o1 [Example 14, 5-(2H-1,3-benzodioxol-5-yl)-3-(5-ethyl-1,3-oxazol-2-yl)-4H,7H-pyrazolo[1,5-a]pyrimidin-7-one]
CCn1ncc2cc(-c3cc(=O)n4ncc(-c5nc(C)cs5)c4[nH]3)ccc21 [Example 25, 5-(1-ethyl-1H-indazol-5-yl)-3-(4-methyl-1,3-thiazol-2-yl)-4H,7H-pyrazolo[1,5-a]pyrimidin-7-one]
CCn1ncc2cc(-c3cc(=O)n4ncc(-c5nccs5)c4[nH]3)ccc21 [Example 26, 5-(1-ethyl-1H-indazol-5-yl)-3-(thiazol-2-yl)-4H,7H-pyrazolo[1,5-a]pyrimidin-7-one]
CCc1coc(-c2cnn3c(=O)cc(-c4ccc5c(cnn5CC)c4)[nH]c23)n1 [Example 28, 5-(1-ethyl-1H-indazol-5-yl)-3-(4-ethyloxazol-2-yl)pyrazolo[1,5-a]pyrimidin-7(4H)-one]
CCn1ncc2cc(-c3cc(=O)n4nc(C)c(-c5ncco5)c4[nH]3)ccc21 [Example 29, 5-(1-ethyl-1H-indazol-5-yl)-2-methyl-3-(oxazol-2-yl)-4H,7H-pyrazolo[1,5-a]pyrimidin-7-one]
CCn1ncc2cc(-c3cc(=O)n4ncc(-c5nnc(C)o5)c4[nH]3)ccc21 [Example 31, 5-(1-ethyl-1H-indazol-5-yl)-3-(5-methyl-1,3,4-oxadiazol-2-yl)-4H,7H-pyrazolo[1,5-a]pyrimidin-7-one]
CCn1ncc2cc(-c3cc(=O)n4ncc(-c5ccn(C)n5)c4[nH]3)ccc21 [Example 32, 5-(1-ethyl-1H-indazol-5-yl)-3-(1-methyl-1H-pyrazol-3-yl)-4H,7H-pyrazolo[1,5-a]pyrimidin-7-one]
CCn1ncc2cc(-c3cc(=O)n4ncc(-c5nc6ccccc6o5)c4[nH]3)ccc21 [Example 33, 3-(benzo[d]oxazol-2-yl)-5-(1-ethyl-1H-indazol-5-yl)pyrazolo[1,5-a]pyrimidin-7(4H)-one]
CCOc1cc(-c2cc(=O)n3ncc(-c4ncco4)c3[nH]2)ccc1Cl [Example 34, 5-(4-chloro-3-ethoxyphenyl)-3-(oxazol-2-yl)-4H,7H-pyrazolo[1,5-a]pyrimidin-7-one]
CCOc1cc(-c2cc(=O)n3ncc(-c4ncc(CC)o4)c3[nH]2)ccc1Cl [Example 35, 5-(4-chloro-3-ethoxyphenyl)-3-(5-ethyloxazol-2-yl)-4H,7H-pyrazolo[1,5-a]pyrimidin-7-one]
CCOc1cc(-c2cc(=O)n3ncc(-c4ncc(C)o4)c3[nH]2)ccc1F [Example 36, 5-(3-ethoxy-4-fluorophenyl)-3-(5-methyloxazol-2-yl)-4H,7H-pyrazolo[1,5-a]pyrimidin-7-one]
Cc1cnc(-c2cnn3c(=O)cc(-c4ccc(Cl)c(OCC(F)(F)F)c4)[nH]c23)o1 [Example 37, 5-[4-chloro-3-(2,2,2-trifluoroethoxy)phenyl]-3-(5-methyloxazol-2-yl)-4H,7H-pyrazolo[1,5-a]pyrimidin-7-one]
Cc1cnc(-c2cnn3c(=O)cc(-c4ccc(Cl)c(OC(F)(F)F)c4)[nH]c23)o1 [Example 38, 5-[4-chloro-3-(trifluoromethoxy)phenyl]-3-(5-methyloxazol-2-yl)-4H,7H-pyrazolo[1,5-a]pyrimidin-7-one]
COc1cc(-c2cc(=O)n3ncc(-c4nccs4)c3[nH]2)ccc1Cl [Example 39, 5-(4-chloro-3-methoxyphenyl)-3-(thiazol-2-yl)-4H,7H-pyrazolo[1,5-a]pyrimidin-7-one]
CCn1ncc2cc(-c3cc(=O)n4ncc(-c5nc6ccccc6s5)c4[nH]3)ccc21 [Example 40, 3-(benzo[d]thiazol-2-yl)-5-(1-ethyl-1H-indazol-5-yl)pyrazolo[1,5-a]pyrimidin-7(4H)-one]
COc1cc(-c2cc(=O)n3ncc(-c4nc5ccccc5s4)c3[nH]2)ccc1Cl [Example 41, 3-(benzo[d]thiazol-2-yl)-5-(4-chloro-3-methoxyphenyl)pyrazolo[1,5-a]pyrimidin-7(4H)-one]
CCn1ncc2cc(-c3cc(=O)n4nc(C)c(-c5nc(C)co5)c4[nH]3)ccc21 [Example 42, 5-(1-ethyl-1H-indazol-5-yl)-2-methyl-3-(4-methyloxazol-2-yl)-4H,7H-pyrazolo[1,5-a]pyrimidin-7-one]
O=c1cc(-c2ccc3occc3c2)[nH]c2c(-c3nccs3)cnn12 [Example 44, 5-(benzofuran-5-yl)-3-(thiazol-2-yl)pyrazolo[1,5-a]pyrimidin-7(4H)-one]
COc1cc(-c2cc(=O)n3ncc(-c4nc5ccccc5o4)c3[nH]2)ccc1Cl [Example 45, 3-(benzo[d]oxazol-2-yl)-5-(4-chloro-3-methoxyphenyl)pyrazolo[1,5-a]pyrimidin-7(4H)-one]
CCOc1cc(-c2cc(=O)n3ncc(-c4ncc(C)o4)c3[nH]2)ccc1Cl [Example 46, 5-(4-chloro-3-ethoxyphenyl)-3-(5-methyloxazol-2-yl)pyrazolo[1,5-a]pyrimidin-7(4H)-one]
Cc1cnc(-c2cnn3c(=O)cc(-c4ccc(Cl)cc4)[nH]c23)o1 [Example 47, 5-(4-chlorophenyl)-3-(5-methyloxazol-2-yl)pyrazolo[1,5-a]pyrimidin-7(4H)-one]
